Data from PubChem BioAssay (NCI).
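Five concentrations, 48 hours, 96-well plates. GI50 = concentration required for 50% inhibition of growth. TGI: concentration producing complete growth inhibition.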

Columns and labels:
Assay in all cases: NCI anticancer screen, dose series, 48 h
TK-10 renal = system: TK-10 renal
A549 NSCLC = system: A549 NSCLC
NCI-H23 lung = system: NCI-H23 lung
SF-295 CNS = system: SF-295 CNS
SF-268 CNS = system: SF-268 CNS
SK-MEL-5 melanoma = system: SK-MEL-5 melanoma
SW-620 colon = system: SW-620 colon
K-562 leukemia = system: K-562 leukemia
CAKI-1 renal = system: CAKI-1 renal
CCRF-CEM leukemia = system: CCRF-CEM leukemia

CC(=O)NC1=C(Sc2ccc(Cl)cc2)C(=O)c2ccccc2C1=O
TGI (TK-10 renal): 13.5 µM
TGI (A549 NSCLC): > 100 µM
TGI (NCI-H23 lung): 37 µM
TGI (SF-295 CNS): 20.9 µM
TGI (SF-268 CNS): 8.41 µM
TGI (SK-MEL-5 melanoma): 4.8 µM
TGI (SW-620 colon): 4.01 µM
TGI (K-562 leukemia): 5.41 µM
TGI (CAKI-1 renal): 14.6 µM
TGI (CCRF-CEM leukemia): 4.64 µM

CC(OC(=O)N(N(CCCl)S(C)(=O)=O)S(C)(=O)=O)c1ccc([N+](=O)[O-])cc1 (stereo not given)
GI50 (TK-10 renal): > 66.2 µM
TGI (TK-10 renal): > 100 µM
GI50 (A549 NSCLC): > 58.3 µM
TGI (A549 NSCLC): > 100 µM
GI50 (NCI-H23 lung): 39.1 µM
TGI (NCI-H23 lung): > 100 µM
GI50 (SF-295 CNS): 34.5 µM
TGI (SF-295 CNS): > 100 µM
GI50 (SF-268 CNS): > 100 µM
TGI (SF-268 CNS): > 100 µM
GI50 (SK-MEL-5 melanoma): 16.1 µM
TGI (SK-MEL-5 melanoma): 44.7 µM
GI50 (SW-620 colon): > 67.9 µM
TGI (SW-620 colon): > 100 µM
GI50 (K-562 leukemia): 35.7 µM
TGI (K-562 leukemia): > 100 µM
GI50 (CAKI-1 renal): 64.3 µM
TGI (CAKI-1 renal): > 100 µM
GI50 (CCRF-CEM leukemia): 0.179 µM
TGI (CCRF-CEM leukemia): 15.9 µM

FC(F)(F)c1[nH]ncc1-c1nc2ccc3[nH]ncc3c2c2c1CCCC2
GI50 (TK-10 renal): 1.24 µM
TGI (TK-10 renal): 8.27 µM
GI50 (A549 NSCLC): 1.77 µM
TGI (A549 NSCLC): 8.45 µM
GI50 (NCI-H23 lung): 1.52 µM
TGI (NCI-H23 lung): 4.32 µM
GI50 (SF-295 CNS): 1.69 µM
TGI (SF-295 CNS): 8.52 µM
GI50 (SF-268 CNS): 1.73 µM
TGI (SF-268 CNS): 4.72 µM
GI50 (SK-MEL-5 melanoma): 1.55 µM
TGI (SK-MEL-5 melanoma): 2.96 µM
GI50 (SW-620 colon): 1.75 µM
TGI (SW-620 colon): 11 µM
GI50 (K-562 leukemia): 2.71 µM
TGI (K-562 leukemia): 60.5 µM
GI50 (CAKI-1 renal): 1.06 µM
TGI (CAKI-1 renal): 10.4 µM
GI50 (CCRF-CEM leukemia): 2.15 µM
TGI (CCRF-CEM leukemia): 10.7 µM

CN(C)CCOc1ccc(-c2cc(-c3ccc4c(c3)CC/C4=N\O)c(-c3ccncc3)o2)cc1
GI50 (TK-10 renal): 5.62 µM
TGI (TK-10 renal): 9.79 µM
GI50 (A549 NSCLC): 3.57 µM
TGI (A549 NSCLC): 7.06 µM
GI50 (NCI-H23 lung): 3.21 µM
TGI (NCI-H23 lung): 7.12 µM
GI50 (SF-295 CNS): 3.8 µM
TGI (SF-295 CNS): 7.68 µM
GI50 (SF-268 CNS): 4.72 µM
TGI (SF-268 CNS): 9.94 µM
GI50 (SK-MEL-5 melanoma): 2.2 µM
TGI (SK-MEL-5 melanoma): 5.86 µM
GI50 (SW-620 colon): 1.92 µM
TGI (SW-620 colon): 5.45 µM
GI50 (K-562 leukemia): 0.668 µM
TGI (K-562 leukemia): 3.27 µM
GI50 (CAKI-1 renal): 4.19 µM
TGI (CAKI-1 renal): 8.71 µM
GI50 (CCRF-CEM leukemia): 3.76 µM
TGI (CCRF-CEM leukemia): 13.3 µM

Oc1c(CNCCNCc2cc(Cl)cc(Cc3ccccc3)c2O)cc(Cl)cc1Cc1ccccc1
GI50 (TK-10 renal): 0.228 µM
TGI (TK-10 renal): > 100 µM
GI50 (A549 NSCLC): 0.469 µM
TGI (A549 NSCLC): > 100 µM
GI50 (NCI-H23 lung): 0.668 µM
TGI (NCI-H23 lung): 17.6 µM
GI50 (SF-295 CNS): 0.448 µM
TGI (SF-295 CNS): 4.1 µM
GI50 (SF-268 CNS): 0.224 µM
TGI (SF-268 CNS): > 100 µM
GI50 (SK-MEL-5 melanoma): 0.302 µM
TGI (SK-MEL-5 melanoma): 1.91 µM
GI50 (SW-620 colon): 0.472 µM
TGI (SW-620 colon): 30.7 µM
GI50 (K-562 leukemia): 0.391 µM
TGI (K-562 leukemia): 27.2 µM
GI50 (CAKI-1 renal): 0.338 µM
TGI (CAKI-1 renal): 18.7 µM
GI50 (CCRF-CEM leukemia): 0.127 µM
TGI (CCRF-CEM leukemia): 24.4 µM

CC(=O)/C(=C\c1c(-c2ccccc2)[nH]c2ccccc12)S(=O)(=O)c1ccccc1
GI50 (TK-10 renal): 3.44 µM
TGI (TK-10 renal): > 41.1 µM
GI50 (A549 NSCLC): 6.73 µM
TGI (A549 NSCLC): 41.9 µM
GI50 (NCI-H23 lung): 1.48 µM
TGI (NCI-H23 lung): 5.52 µM
GI50 (SF-295 CNS): 2.33 µM
TGI (SF-295 CNS): 10.2 µM
GI50 (SF-268 CNS): 3.35 µM
TGI (SF-268 CNS): 31.1 µM
GI50 (SK-MEL-5 melanoma): 0.78 µM
TGI (SK-MEL-5 melanoma): 2.21 µM
GI50 (SW-620 colon): 0.73 µM
TGI (SW-620 colon): 7.14 µM
GI50 (K-562 leukemia): 0.406 µM
TGI (K-562 leukemia): 2.43 µM
GI50 (CAKI-1 renal): 2.43 µM
TGI (CAKI-1 renal): 10.6 µM
GI50 (CCRF-CEM leukemia): 1.4 µM
TGI (CCRF-CEM leukemia): 4.78 µM

CCN(Cc1cccc(F)c1F)c1ccc(CO)c(Cl)c1
GI50 (TK-10 renal): 0.0385 µM
TGI (TK-10 renal): 0.23 µM
GI50 (A549 NSCLC): 1.54 µM
TGI (A549 NSCLC): 24.2 µM
GI50 (NCI-H23 lung): 13.6 µM
TGI (NCI-H23 lung): 51.6 µM
GI50 (SF-295 CNS): 0.284 µM
TGI (SF-295 CNS): 25 µM
GI50 (SF-268 CNS): 19.3 µM
TGI (SF-268 CNS): 42.7 µM
GI50 (SK-MEL-5 melanoma): 11.2 µM
TGI (SK-MEL-5 melanoma): 23.4 µM
GI50 (SW-620 colon): 0.554 µM
TGI (SW-620 colon): 18.1 µM
GI50 (K-562 leukemia): 0.683 µM
TGI (K-562 leukemia): 29.3 µM
GI50 (CAKI-1 renal): 0.4 µM
TGI (CAKI-1 renal): 5.59 µM
GI50 (CCRF-CEM leukemia): 20.1 µM
TGI (CCRF-CEM leukemia): 69.1 µM

Clc1ccc(N2CCC(N3CCCC3)CC2)cc1-c1nc2ccccc2[nH]1
GI50 (TK-10 renal): 20.7 µM
TGI (TK-10 renal): 42.2 µM
GI50 (A549 NSCLC): 27.2 µM
TGI (A549 NSCLC): > 84.4 µM
GI50 (NCI-H23 lung): 25.7 µM
TGI (NCI-H23 lung): > 71.3 µM
GI50 (SF-295 CNS): 17.4 µM
TGI (SF-295 CNS): 36.2 µM
GI50 (SF-268 CNS): 15.4 µM
TGI (SF-268 CNS): 31.8 µM
GI50 (SK-MEL-5 melanoma): 6.59 µM
TGI (SK-MEL-5 melanoma): 17.1 µM
GI50 (SW-620 colon): 16.8 µM
TGI (SW-620 colon): 36 µM
GI50 (K-562 leukemia): 17 µM
TGI (K-562 leukemia): 44.5 µM
GI50 (CAKI-1 renal): 19.3 µM
TGI (CAKI-1 renal): 50 µM
GI50 (CCRF-CEM leukemia): 25.9 µM
TGI (CCRF-CEM leukemia): 79.4 µM

COc1cc2c(cc1OC)[C@@H]([C@H](O)c1ccccc1)NCC2
TGI (TK-10 renal): > 100 µM
TGI (A549 NSCLC): > 100 µM
TGI (NCI-H23 lung): > 100 µM
TGI (SF-295 CNS): > 100 µM
TGI (SF-268 CNS): > 100 µM
TGI (SK-MEL-5 melanoma): > 100 µM
TGI (SW-620 colon): > 100 µM
TGI (K-562 leukemia): > 100 µM
TGI (CAKI-1 renal): > 100 µM
TGI (CCRF-CEM leukemia): > 100 µM

Nc1cc2nc3ccccc3oc-2cc1=O
GI50 (TK-10 renal): 14.3 µM
TGI (TK-10 renal): 39.7 µM
GI50 (A549 NSCLC): 1.66 µM
TGI (A549 NSCLC): 3.84 µM
GI50 (NCI-H23 lung): 0.811 µM
TGI (NCI-H23 lung): 3.56 µM
GI50 (SF-295 CNS): 1.44 µM
TGI (SF-295 CNS): 3.79 µM
GI50 (SF-268 CNS): 4.85 µM
TGI (SF-268 CNS): > 57.2 µM
GI50 (SK-MEL-5 melanoma): 1.16 µM
TGI (SK-MEL-5 melanoma): 2.38 µM
GI50 (SW-620 colon): 1.91 µM
TGI (SW-620 colon): 5.08 µM
GI50 (K-562 leukemia): 2.05 µM
TGI (K-562 leukemia): > 26.9 µM
GI50 (CAKI-1 renal): 15.3 µM
TGI (CAKI-1 renal): > 53.7 µM
GI50 (CCRF-CEM leukemia): 13.4 µM
TGI (CCRF-CEM leukemia): > 64.9 µM

COc1ccc2c(c1)CCN1C3=C(CCC3)C(=O)C[C@@H]21
TGI (TK-10 renal): > 100 µM
TGI (A549 NSCLC): > 100 µM
TGI (NCI-H23 lung): > 100 µM
TGI (SF-295 CNS): > 100 µM
TGI (SF-268 CNS): > 100 µM
TGI (SK-MEL-5 melanoma): > 100 µM
TGI (SW-620 colon): > 100 µM
TGI (K-562 leukemia): > 100 µM
TGI (CAKI-1 renal): > 100 µM
TGI (CCRF-CEM leukemia): > 100 µM
